From ChEMBL document CHEMBL5291721, “A preclinical secondary pharmacology resource illuminates target-adverse drug reaction associations of marketed drugs” (Nat Commun, 2023)

What was measured:
[1] = biological target: Vascular endothelial growth factor receptor 2 (Homo sapiens, UniProt P35968); type: functional
[2] = biological target: T1, Alpha-2A adrenergic receptor (Homo sapiens, UniProt P08913)
T1 sequence (P08913 whole entry): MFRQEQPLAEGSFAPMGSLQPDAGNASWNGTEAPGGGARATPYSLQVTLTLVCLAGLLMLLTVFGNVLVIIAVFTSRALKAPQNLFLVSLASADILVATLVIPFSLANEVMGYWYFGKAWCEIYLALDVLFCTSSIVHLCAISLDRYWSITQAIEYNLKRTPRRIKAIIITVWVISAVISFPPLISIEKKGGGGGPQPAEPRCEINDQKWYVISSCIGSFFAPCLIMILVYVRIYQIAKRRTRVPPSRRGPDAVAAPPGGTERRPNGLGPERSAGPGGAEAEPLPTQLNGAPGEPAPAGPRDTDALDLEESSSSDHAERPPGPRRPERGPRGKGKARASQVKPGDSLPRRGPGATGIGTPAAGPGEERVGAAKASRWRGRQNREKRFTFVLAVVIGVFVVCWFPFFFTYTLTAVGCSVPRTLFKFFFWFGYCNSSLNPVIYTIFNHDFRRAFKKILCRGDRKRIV

[3] = biological target: Prostaglandin G/H synthase 1 (Homo sapiens, UniProt P23219); type: functional
Estrogen receptor = biological target: T2, Estrogen receptor (Homo sapiens, UniProt P03372)
T2 sequence (P03372 whole entry): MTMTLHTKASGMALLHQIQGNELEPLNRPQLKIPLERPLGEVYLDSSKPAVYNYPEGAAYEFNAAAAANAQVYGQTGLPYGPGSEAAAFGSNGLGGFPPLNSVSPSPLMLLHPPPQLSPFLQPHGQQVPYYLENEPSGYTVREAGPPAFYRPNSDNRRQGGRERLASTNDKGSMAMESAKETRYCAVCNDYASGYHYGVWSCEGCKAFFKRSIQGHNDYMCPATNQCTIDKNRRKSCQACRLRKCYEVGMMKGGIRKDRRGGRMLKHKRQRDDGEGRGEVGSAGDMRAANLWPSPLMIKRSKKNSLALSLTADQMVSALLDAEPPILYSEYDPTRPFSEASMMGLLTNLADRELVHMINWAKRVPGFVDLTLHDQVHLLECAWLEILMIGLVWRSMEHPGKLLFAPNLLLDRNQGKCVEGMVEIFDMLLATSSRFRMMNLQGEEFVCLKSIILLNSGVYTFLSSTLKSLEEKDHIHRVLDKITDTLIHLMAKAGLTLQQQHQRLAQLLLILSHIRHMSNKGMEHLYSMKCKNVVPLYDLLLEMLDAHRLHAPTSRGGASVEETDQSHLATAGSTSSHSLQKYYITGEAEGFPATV

[4] = biological target: Beta-2 adrenergic receptor (Homo sapiens, UniProt P07550)
[5] = biological target: Glutamate receptor ionotropic, NMDA 1 (Rattus norvegicus, UniProt P35439)
[6] = biological target: Kappa-type opioid receptor (Homo sapiens, UniProt P41145)
Mu-type opioid receptor = Mu-type opioid receptor (Homo sapiens, UniProt P35372); test: biochemical; type: functional
Progesterone receptor [7] = biological target: T3, Progesterone receptor (Homo sapiens, UniProt P06401); type: functional
T3 sequence (P06401 whole entry): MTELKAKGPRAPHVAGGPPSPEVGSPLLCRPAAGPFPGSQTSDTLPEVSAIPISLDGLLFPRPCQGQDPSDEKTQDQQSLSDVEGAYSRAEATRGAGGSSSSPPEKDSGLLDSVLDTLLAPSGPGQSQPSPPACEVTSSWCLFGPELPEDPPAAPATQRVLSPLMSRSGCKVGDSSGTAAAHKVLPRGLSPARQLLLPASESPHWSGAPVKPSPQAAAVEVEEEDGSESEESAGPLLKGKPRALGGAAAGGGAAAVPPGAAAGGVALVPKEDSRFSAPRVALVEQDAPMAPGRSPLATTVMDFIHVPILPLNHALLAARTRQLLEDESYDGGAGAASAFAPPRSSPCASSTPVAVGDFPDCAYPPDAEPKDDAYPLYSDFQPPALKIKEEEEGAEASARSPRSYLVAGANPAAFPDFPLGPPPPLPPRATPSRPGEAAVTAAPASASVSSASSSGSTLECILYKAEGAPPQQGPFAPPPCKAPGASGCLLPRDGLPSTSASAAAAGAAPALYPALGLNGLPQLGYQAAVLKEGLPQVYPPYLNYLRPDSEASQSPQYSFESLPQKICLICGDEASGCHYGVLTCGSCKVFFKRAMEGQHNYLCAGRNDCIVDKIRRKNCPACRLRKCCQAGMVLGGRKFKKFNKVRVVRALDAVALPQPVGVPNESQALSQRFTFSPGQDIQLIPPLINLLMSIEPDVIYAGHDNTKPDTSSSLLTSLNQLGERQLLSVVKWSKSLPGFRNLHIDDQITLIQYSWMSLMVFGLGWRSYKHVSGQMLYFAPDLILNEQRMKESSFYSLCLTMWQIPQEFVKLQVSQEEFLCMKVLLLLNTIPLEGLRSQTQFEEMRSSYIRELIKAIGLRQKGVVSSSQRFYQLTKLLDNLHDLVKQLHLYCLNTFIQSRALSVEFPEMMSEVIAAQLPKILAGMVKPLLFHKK

Progesterone receptor [8] = biological target: T3, Progesterone receptor; type: functional; remark: listed apart in the source
[9] = biological target: T4, Alpha-1A adrenergic receptor (Homo sapiens, UniProt P35348); type: functional, cell-based
T4 sequence (P35348 whole entry): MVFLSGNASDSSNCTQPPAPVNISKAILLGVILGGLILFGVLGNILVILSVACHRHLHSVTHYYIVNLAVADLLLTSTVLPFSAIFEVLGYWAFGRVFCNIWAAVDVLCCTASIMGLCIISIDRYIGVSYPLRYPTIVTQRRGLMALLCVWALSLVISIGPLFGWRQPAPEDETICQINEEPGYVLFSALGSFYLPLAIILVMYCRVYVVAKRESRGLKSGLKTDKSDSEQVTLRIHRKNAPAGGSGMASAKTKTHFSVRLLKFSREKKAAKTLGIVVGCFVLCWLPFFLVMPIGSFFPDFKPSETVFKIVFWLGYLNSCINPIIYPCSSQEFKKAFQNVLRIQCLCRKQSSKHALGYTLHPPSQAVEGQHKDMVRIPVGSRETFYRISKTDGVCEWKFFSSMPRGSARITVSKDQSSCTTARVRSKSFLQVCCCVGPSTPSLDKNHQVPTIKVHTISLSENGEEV
Further: assay procedure not described here.

Vascular endothelial growth factor receptor 2, sequence (P35968 whole entry): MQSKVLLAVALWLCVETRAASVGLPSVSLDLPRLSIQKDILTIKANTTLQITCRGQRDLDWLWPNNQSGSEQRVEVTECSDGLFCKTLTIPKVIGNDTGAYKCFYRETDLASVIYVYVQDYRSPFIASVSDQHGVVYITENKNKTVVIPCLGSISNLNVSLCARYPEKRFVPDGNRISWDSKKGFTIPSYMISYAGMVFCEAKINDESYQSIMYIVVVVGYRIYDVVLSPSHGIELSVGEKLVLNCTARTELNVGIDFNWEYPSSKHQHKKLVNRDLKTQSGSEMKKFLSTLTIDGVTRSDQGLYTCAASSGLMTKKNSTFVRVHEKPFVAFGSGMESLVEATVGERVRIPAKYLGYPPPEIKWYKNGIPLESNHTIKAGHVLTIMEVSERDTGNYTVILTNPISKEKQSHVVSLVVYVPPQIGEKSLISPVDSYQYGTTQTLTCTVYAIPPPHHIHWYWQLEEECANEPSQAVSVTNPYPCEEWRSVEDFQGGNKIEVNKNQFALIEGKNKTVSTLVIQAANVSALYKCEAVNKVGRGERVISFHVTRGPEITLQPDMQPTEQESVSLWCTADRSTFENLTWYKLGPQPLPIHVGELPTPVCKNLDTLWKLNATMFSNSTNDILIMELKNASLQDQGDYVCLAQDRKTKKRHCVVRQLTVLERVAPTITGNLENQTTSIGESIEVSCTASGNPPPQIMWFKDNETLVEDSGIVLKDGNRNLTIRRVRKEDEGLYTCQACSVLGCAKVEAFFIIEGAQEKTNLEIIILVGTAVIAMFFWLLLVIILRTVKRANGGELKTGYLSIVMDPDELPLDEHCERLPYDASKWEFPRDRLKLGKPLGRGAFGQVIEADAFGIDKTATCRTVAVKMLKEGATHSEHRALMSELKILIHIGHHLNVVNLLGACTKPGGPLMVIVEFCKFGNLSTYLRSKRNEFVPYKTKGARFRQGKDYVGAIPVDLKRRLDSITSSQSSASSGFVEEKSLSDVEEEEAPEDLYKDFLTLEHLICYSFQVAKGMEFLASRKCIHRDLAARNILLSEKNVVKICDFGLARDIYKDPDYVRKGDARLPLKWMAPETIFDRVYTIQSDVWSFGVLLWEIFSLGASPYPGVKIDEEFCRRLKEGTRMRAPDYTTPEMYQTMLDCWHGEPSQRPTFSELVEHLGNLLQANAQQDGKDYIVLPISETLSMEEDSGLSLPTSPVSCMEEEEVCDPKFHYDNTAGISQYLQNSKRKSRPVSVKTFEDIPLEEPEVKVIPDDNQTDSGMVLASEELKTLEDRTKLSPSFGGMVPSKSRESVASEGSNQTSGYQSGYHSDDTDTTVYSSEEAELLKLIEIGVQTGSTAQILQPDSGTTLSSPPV
Prostaglandin G/H synthase 1, sequence (P23219 whole entry): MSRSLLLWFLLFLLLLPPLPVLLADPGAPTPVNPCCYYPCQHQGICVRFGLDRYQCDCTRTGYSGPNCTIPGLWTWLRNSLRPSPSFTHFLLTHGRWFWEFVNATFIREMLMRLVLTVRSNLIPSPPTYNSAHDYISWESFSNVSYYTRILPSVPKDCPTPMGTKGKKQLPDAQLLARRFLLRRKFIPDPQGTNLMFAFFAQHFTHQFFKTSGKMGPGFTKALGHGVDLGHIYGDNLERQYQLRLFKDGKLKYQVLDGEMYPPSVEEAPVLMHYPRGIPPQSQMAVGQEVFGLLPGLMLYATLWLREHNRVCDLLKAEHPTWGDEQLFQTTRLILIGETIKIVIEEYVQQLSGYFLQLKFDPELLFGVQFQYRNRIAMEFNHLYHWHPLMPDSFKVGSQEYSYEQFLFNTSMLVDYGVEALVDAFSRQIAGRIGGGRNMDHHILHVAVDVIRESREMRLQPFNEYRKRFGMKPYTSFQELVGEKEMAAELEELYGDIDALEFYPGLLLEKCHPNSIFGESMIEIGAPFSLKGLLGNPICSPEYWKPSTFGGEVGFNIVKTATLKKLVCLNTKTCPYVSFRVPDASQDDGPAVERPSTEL
Kappa-type opioid receptor, sequence (P41145 whole entry): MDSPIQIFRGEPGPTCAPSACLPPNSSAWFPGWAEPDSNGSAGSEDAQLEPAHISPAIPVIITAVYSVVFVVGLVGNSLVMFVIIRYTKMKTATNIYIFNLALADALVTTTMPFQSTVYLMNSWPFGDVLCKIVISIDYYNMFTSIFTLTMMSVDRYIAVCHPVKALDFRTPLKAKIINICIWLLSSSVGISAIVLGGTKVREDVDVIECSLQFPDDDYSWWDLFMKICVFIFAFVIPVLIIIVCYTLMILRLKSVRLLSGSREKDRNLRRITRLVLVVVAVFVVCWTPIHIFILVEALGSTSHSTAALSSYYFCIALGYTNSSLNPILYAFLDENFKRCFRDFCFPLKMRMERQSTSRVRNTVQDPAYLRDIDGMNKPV
Beta-2 adrenergic receptor, sequence (P07550 whole entry): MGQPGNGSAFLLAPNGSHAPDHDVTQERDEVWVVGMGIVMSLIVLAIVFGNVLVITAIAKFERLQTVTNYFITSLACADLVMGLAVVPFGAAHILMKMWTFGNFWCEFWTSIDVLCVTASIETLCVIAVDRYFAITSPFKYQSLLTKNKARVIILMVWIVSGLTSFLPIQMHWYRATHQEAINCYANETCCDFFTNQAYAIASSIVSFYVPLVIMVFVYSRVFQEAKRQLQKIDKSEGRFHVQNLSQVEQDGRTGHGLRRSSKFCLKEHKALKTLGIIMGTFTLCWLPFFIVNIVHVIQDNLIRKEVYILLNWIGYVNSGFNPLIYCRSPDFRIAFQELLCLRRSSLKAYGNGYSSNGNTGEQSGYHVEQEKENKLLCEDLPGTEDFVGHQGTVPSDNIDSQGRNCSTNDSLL
Mu-type opioid receptor, sequence (P35372 whole entry): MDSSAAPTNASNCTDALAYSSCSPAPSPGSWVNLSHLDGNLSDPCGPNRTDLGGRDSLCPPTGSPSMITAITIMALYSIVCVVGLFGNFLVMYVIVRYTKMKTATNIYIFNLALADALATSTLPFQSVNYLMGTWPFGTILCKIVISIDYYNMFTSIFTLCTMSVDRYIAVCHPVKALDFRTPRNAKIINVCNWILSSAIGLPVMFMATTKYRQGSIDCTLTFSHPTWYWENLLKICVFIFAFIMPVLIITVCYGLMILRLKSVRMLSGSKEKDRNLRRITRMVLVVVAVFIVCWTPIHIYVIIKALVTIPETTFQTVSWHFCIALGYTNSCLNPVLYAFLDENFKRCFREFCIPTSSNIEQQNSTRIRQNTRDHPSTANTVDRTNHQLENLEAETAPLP

SMILES	AC50 [1] [µM]	AC50 [2] [µM]	AC50 [3] [µM]	AC50 (Estrogen receptor) [µM]	AC50 [4] [µM]	AC50 [5] [µM]	AC50 [6] [µM]	AC50 (Mu-type opioid receptor) [µM]	AC50 (Progesterone receptor [7]) [µM]	AC50 (Progesterone receptor [8]) [µM]	AC50 [9] [µM]
Cc1cc(O)cc(C)c1Cl [CHLOROXYLENOL]	> 30	> 30	> 3								
C#C[C@]1(O)CC[C@H]2[C@@H]3CCC4=CC(=O)CC[C@@H]4[C@H]3CC[C@@]21CC [LEVONORGESTREL]	> 30	> 30	> 30	8.65							
C(=N\NC1=NCCN1)/c1c2ccccc2c(/C=N/NC2=NCCN2)c2ccccc12 [BISANTRENE]		11.6	> 30	> 30							
O=C1c2c(O)c(=O)ccn2N([C@@H]2c3ccccc3SCc3c2ccc(F)c3F)[C@@H]2COCCN12 [BALOXAVIR]	> 30	> 30	> 30	> 30							
C[N+]1(C)[C@@H]2C[C@@H](OC(=O)[C@H](CO)c3ccccc3)C[C@H]1[C@@H]1O[C@@H]12 [METHSCOPOLAMINE]	> 30	> 30	> 30	> 30							
CC1(C)O[C@@H]2C[C@H]3[C@@H]4C[C@H](F)C5=CC(=O)CC[C@]5(C)[C@H]4[C@@H](O)C[C@]3(C)[C@]2(C(=O)CO)O1 [FLURANDRENOLIDE]	> 30	> 30	> 30	> 30							
COc1cc(Nc2c(C#N)cnc3cc(OCCCN4CCN(C)CC4)c(OC)cc23)c(Cl)cc1Cl [BOSUTINIB]		7.58	> 30	> 30	> 10	> 10	10				
O=C(COc1ccc(Cl)cc1)N1CCN(Cc2ccc3c(c2)OCO3)CC1 [FIPEXIDE]	> 30	11.1	> 30	> 30							
O=C1c2ccccc2C(=O)C1C(=O)C(c1ccccc1)c1ccccc1 [DIPHENADIONE]	> 30	> 30	15.6								
C[N+](C)(C)CCCCCCCCCC[N+](C)(C)C [DECAMETHONIUM]	> 30	> 30	> 30	> 30							
CC(=O)Oc1c(C)cc(OCC(O)CNC(C)C)c(C)c1C (centres undefined) [METIPRANOLOL]	> 30	> 30	> 30	> 30							
CC(N/C(=N\C#N)Nc1ccncc1)C(C)(C)C (centres undefined) [PINACIDIL ANHYDROUS]	> 30	> 30	> 30								
O=C1CC[C@@]2(O)[C@H]3Cc4ccc(O)c5c4[C@@]2(CCN3CC2CC2)[C@H]1O5 [NALTREXONE]	> 30	> 30	> 30								
CCC(=O)c1c(O)cc(O)cc1O [FLOPROPIONE]	> 30	> 30	22.3	> 30							
O=C1[C@H](CC[C@H](O)c2ccc(F)cc2)[C@@H](c2ccc(O)cc2)N1c1ccc(F)cc1 [EZETIMIBE]	> 30	> 30	> 30	> 30							
CCC(=O)O[C@H]1[C@H](O[C@@H]2[C@@H](C)[C@H](O[C@H]3C[C@@](C)(OC)[C@@H](O)[C@H](C)O3)[C@@H](C)C(=O)O[C@H](CC)[C@@](C)(O)[C@H](O)[C@@H](C)C(=O)[C@H](C)C[C@@]2(C)O)O[C@H](C)C[C@@H]1N(C)C [ERYTHROMYCIN PROPIONATE]		> 30	> 30	> 30							
CS(=O)(=O)c1ccc([C@@H](O)[C@@H](CO)NC(=O)C(Cl)Cl)cc1 [THIAMPHENICOL]		> 30	> 30	> 30	> 30	> 30	> 30	> 30	> 30	> 30	> 30
CCOC(=O)c1ccc(O)cc1 [ETHYLPARABEN]	> 30	> 30	> 1	> 30							
Cc1c(-c2ccccc2)oc2c(C(=O)OCCN3CCCCC3)cccc2c1=O [FLAVOXATE]	> 30	13.9	> 30	> 30							
Sc1ncnc2nc[nH]c12 [MERCAPTOPURINE ANHYDROUS]	> 30	> 30	> 30	> 30							
Cc1ccc(O)c2ncccc12 [TILIQUINOL]	> 30	> 30	> 30	> 30							
CC(C)OC(=O)[C@H](C)N[P@](=O)(OC[C@H]1O[C@@H](n2ccc(=O)[nH]c2=O)[C@](C)(F)[C@@H]1O)Oc1ccccc1 [SOFOSBUVIR]	> 30	> 30	> 30	> 30							
CC(=O)OC[C@H]1O[C@@H](n2ccc(=O)[nH]c2=O)[C@H](OC(C)=O)[C@@H]1OC(C)=O [URIDINE TRIACETATE]	> 30	> 30	> 30	> 30							
CN1CCCC(CN2c3ccccc3Sc3ccccc32)C1 (centres undefined) [MEPAZINE]	> 30	8.25	21.6	> 30							
CN(C)C(=O)Oc1ccc[n+](C)c1 [PYRIDOSTIGMINE]	> 30	> 30	> 30	> 30							
CCO/N=C(\C(=O)N[C@@H]1C(=O)N2C(C(=O)[O-])=C(Sc3nc(-c4cc[n+](C)cc4)cs3)CS[C@H]12)c1nsc(N)n1 [CEFTAROLINE]	> 30	> 30	> 30	> 30							
CCOC(=O)N[C@@H]1CC[C@@H]2[C@@H](C1)C[C@H]1C(=O)O[C@H](C)[C@H]1[C@H]2/C=C/c1ccc(-c2cccc(F)c2)cn1 [VORAPAXAR]	> 30	> 30	> 30	> 30							
CC(O)CO (centres undefined) [PROPYLENE GLYCOL]	> 30	> 30	> 30	> 30							
